Here are results for one molecule from patent US9511086B2, “Method for improving immune system function by administering agents that inhibit DNA-dependent protein kinase-directed apoptosis” (The Board of Trustees of the Leland Stanford Junior …, priority 2010, dated 2016).

In test [1] the test system is CD4+CD45RO− T cells from control donors. Nature of the test: T-cell apoptosis by flow cytometry staining for PI, control T cells. In kind it is cell-based, human. As for the experimental part:
(§1) FIG. 5. Inhibition of DNA-PKcs activity protects RA T cells from apoptosis. CD4+CD45RO− T cells were isolated from 6 control donors and 7 RA patients. Cells were maintained in culture without stimulation for 48 h and then were treated with the DNA-PKcs inhibitor IC86621 (50 nM, 100 nM) or vehicle for 24 h. Cells were harvested and (A) T-cell apoptosis was measured by flow cytometry staining for PI. Representative cytometric data from one patient and one control are shown. (B) Frequencies of PI-positive T-cells in the absence and presence of the DNA-PKcs inhibitor from 6 controls and 7 RA patients are presented as mean±SEM.
Peripheral blood mononuclear cells (PBMC) were separated from whole blood with Lymphocyte Separation Medium (Mediatech Inc., Herndon, Va.). CD45RO^− cells were negatively selected with microbeads (Miltenyi Biotec Inc., Auburn, Calif.), and the naïve CD4^+CD45RO^− population was subsequently selected with CD4 microbeads (autoMACS, Miltenyi Biotec Inc.). […]
To quantify T-cell apoptosis, CD4^+CD45RO^− cells were washed and suspended in 500 μl FACS buffer supplemented with EasyComp Blank Particles (Spherotech, Lake Forest, Ill.). Uptake of PI (Sigma-Aldrich) was determined by flow cytometry. Apoptotic cells were detected with PE-Annexin V (BD Biosciences, San Jose, Calif.) and 7-AAD (BD Biosciences).

The subject of test [2] is CD4+CD45RO− T cells from RA patients. Put plainly: T-cell apoptosis by flow cytometry staining for PI, RA T cells. In kind it is cell-based, human. As for the experimental part: as §1
FIG. 6. Silencing of the DNA-PKcs gene reduces apoptosis in RA T cells. CD4+CD45RO− T cells were purified from 3 control donors and 3 RA patients and transfected with control or DNA-PKcs specific siRNA oligonucleotides by nucleofection. (A, B) Twenty-four hours after transfection, DNA-PKcs transcript levels were quantified by qPCR, and DNA-PKcs protein levels were detected by Western blotting. (C) T-cell apoptosis was analyzed by staining for PI. Representative data from one patient and one control are shown. (D) Cell apoptosis from 3 control and 3 RA samples are presented as mean±SEM.
FIG. 7. […] (A) CD4+CD45RO− T cells were isolated and cultured in the presence of the indicated enzyme inhibitors for 24 h. T-cell apoptosis was quantified through flow cytometry staining for PI. (B) Cells were maintained in culture without stimulation for 48 h and then were treated with the JNK inhibitor. PI-positive T cells were measured after 24 h of treatment with the JNK inhibitor II (5 μM or 10 μM) or vehicle. Frequencies of apoptotic T cells from 6 controls and 7 RA patients are presented as mean±SEM. (C) Representative flow cytometry results from one control and one patient. (D) Flow cytometry analysis of phosphorylated JNK levels in control and RA T cells after culturing without mitogenic stimulation for 72 h. Representative data from one patient and one control are presented. (E) Expression of pJNK protein in n=6 RA and n=6 control samples at 72 h is given as MFI of FITC-pJNK. (F) Flow cytometry analysis of phosphorylated JNK levels in freshly isolated control and RA naïve CD4 T cells. Expression of pJNK protein in n=7 RA and n=7 control samples at day 0 is given as MFI of FITC-pJNK. (G) Quantification of JNK and pJNK protein expression at 72 h by Western blotting. (H) Relative expression levels of pJNK were quantified by measuring band intensities adjusted by total JNK in 6 RA patients and 6 control donors. Data are presented as mean±SEM. (I) CD4+CD45RO− T cells were purified from RA donors and transfected with control or DNA-PKcs-specific siRNA oligonucleotides by nucleofection. Twenty-four hours after transfection, DNA-PKcs and pJNK protein levels were detected by Western blotting. A representative blot from three independent experiments is shown.
Peripheral blood mononuclear cells (PBMC) were separated from whole blood with Lymphocyte Separation Medium (Mediatech Inc., Herndon, Va.). CD45RO^− cells were negatively selected with microbeads (Miltenyi Biotec Inc., Auburn, Calif.), and the naïve CD4^+CD45RO^− population was subsequently selected with CD4 microbeads (autoMACS, Miltenyi Biotec Inc.).
CD4^+CD45RO^− T cells were maintained in a resting state in DMEM without mitogenic stimulation for three days. In selected experiments, T-cell homeostatic cytokines were supplemented. To test for the role of signaling networks in mediating apoptosis, the following inhibitors were added to the cultures at day 0: DNA-PKcs inhibitor IC86621 (Sigma-Aldrich, St. Louis, Mo.), JNK inhibitor II (Calbiochem, La Jolla, Calif.), p38 inhibitor (Alexis Biochemicals, Plymouth Meeting, Pa., SB203580), CaM inhibitor (Calbiochem), NE-KB inhibitor (Calbiochem), and AKT inhibitor (Calbiochem). […]

With `CC(=O)c1ccc(N2CCOCC2)cc1O` [IC86621, 1-(2-hydroxy-4-morpholin-4-ylphenyl)ethanone], the “apoptotic control T cells” value in test [1] (after 72 h of ex vivo culture, independent from treatment with the inhibitor) was 12-14%. In test [1] (control T cells, inhibitor 50 nM, 100 nM for 24 h), the “survival in control T cells” value was “essentially did not affect survival”. Moreover, in test [2] (50 nM, 100 nM), the “protection of RA T cells from apoptosis, dose dependence” value is reported as “dose-dependent”. In addition, in test [2] (RA T cells), the “doses at which T cell survival was improved” value fell in the range of 50 to 100 nM. Moreover, the “survival rates among RA T cells” value in test [2] (RA T cells, 48 h culture then inhibitor (50 nM, 100 nM) for 24 h, PI-positive cells) is “improved survival rates”. For the same molecule, in test [2] (RA T cells, 72 h ex vivo culture), the “dose sufficient to normalize apoptotic susceptibility (PI-positive cells reduced to levels of control T cells)” value was found to be 100 nM.
